Experimental findings from ChEMBL document CHEMBL1133554, “Synthesis, structure-activity relationships, and pharmacological profile of 9-amino-4-oxo-1-phenyl-3,4,6,7-tetrahydro[1,4]diazepino[6, 7,1-hi]indoles: discovery of potent, selective phosphodiesterase type 4 inhibitors” (J Med Chem, 2000) are described below.

One may read the IC50 as the midpoint of a concentration-inhibition curve. As a reminder, the pIC50 is the IC50 on a negative log10 scale, so that one unit is a factor of ten. A lower pIC50 goes with a large IC50. One may read the ED50 as the midpoint of the dose-response relation. A low value points to greater potency. For orientation: inhibition in vivo means the change of the read-out against control, counted positive when it falls.

The target of test [1] is T1, Phosphodiesterase 4 (Homo sapiens, UniProt P27815+Q08499+Q07343+Q08493). As to the kind of experiment: Inhibition of phosphodiesterase type 4 isozyme (PDE4) from the U937 human cell line. Type of test: cell-based. To be noted: u-937.
In another test the target is Phosphodiesterase 3 (Homo sapiens, UniProt Q14432+Q13370). As to the kind of experiment: Inhibition of phosphodiesterase 3 (PDE3) isolated from the dog aorta. Type of test: protein assay, Canis lupus familiaris. To be noted: target entry is the homologue from another species.
Test [2] is described as follows: In vitro inhibition of TNF-alpha-release from human whole blood. Type of test: functional.
Another test deals with Rattus norvegicus. As to the kind of experiment: In vivo inhibition of antigen induced eosinophil recruitment in Brown-Norvway Rats at 10 mg/kg peroral dose. Format: functional. The settings on record: route oral.
Test [3] concerns the target T1, Phosphodiesterase 4. Description: PDE4-related emetic activity in ferrets after intravenous administration at 10 mg/kg. Type of test: functional, organism-based. On the set-up: dose 10 mg/kg. To be noted: Mustela putorius furo, target entry is the homologue from another species.
A short description of test [4]: In vivo inhibition of LPS-stimulated TNF-alpha release in Wistar rats at 10 mg/kg oral dose. Type of test: functional. To be noted: Rattus norvegicus.
Test [5] is described as follows: In vitro inhibition of TNF-alpha release from human peripheral blood monocytes. Type of test: functional.
Test [6] concerns the target Phosphodiesterase, PDE1/PDE5 (Homo sapiens, UniProt O76074+P54750+Q01064+Q14123). Description: Inhibition of phosphodiesterase 1/5 isozyme (PDE1/5) mixture isolated from the guinea pig trachea. On the set-up: species or system Cavia porcellus. The settings on record: target entry is the homologue from another species.
The target of test [7] is T1, Phosphodiesterase 4. As to the kind of experiment: PDE4-related emetic activity in ferrets after intravenous administration at 40 mg/kg. Format: functional, organism-based. The settings on record: Mustela putorius furo, target entry is the homologue from another species. On the set-up: dose 40 mg/kg.

pIC50: −log10 of the molar value. A value given as a limit tells only on which side of the number the result lay.

Take `Nc1ccc(C(=O)N[C@@H]2N=C(c3ccccc3)c3cc(N)cc4c3N(CC4)C2=O)cc1`: the IC50 against Phosphodiesterase 4 [1] is 0.69 µM; against Phosphodiesterase 3, 86.8 µM; in test [6], 93.2 µM. The values for the pIC50 in test [2] and in [5] were 5.82 and 6.35, respectively. This molecule also registered an ED50 in the test with Rattus norvegicus of 10.8 mg/kg. For the same molecule, the R+V on Phosphodiesterase 4 [3] was 0 90 min. In test [4], the inhibition in vivo at 10 mg/kg is -71%.
As for `Cc1cc2c3c(c1)C(c1ccccc1)=N[C@@H](NC(=O)c1cc4ccccc4cn1)C(=O)N3CC2`, the IC50 (on Phosphodiesterase 3; in [6]) was above 100 µM each time.
As to `COc1cc2c3c(c1)C(c1ccccc1)=N[C@@H](NC(=O)c1nnc4cc(C)nn4c1C)C(=O)N3CC2`, the values for the IC50 (at Phosphodiesterase 4 [1]; on Phosphodiesterase 3; in test [6]) were 2.7 µM, 46 µM and 14.1 µM, respectively.
Take `COc1ccccc1C(=O)N[C@@H]1N=C(c2ccccc2)c2cc(N)cc3c2N(CC3)C1=O`: the IC50 against Phosphodiesterase 4 [1] is 0.5 µM; against Phosphodiesterase 3, above 100 µM; in [6], 93.2 µM. For the same molecule, the figures for the pIC50 in test [2] and in test [5] were 5.97 and 6.91, respectively.
Turning to `Cc1cc2nnc(C(=O)N[C@@H]3N=C(c4ccccc4)c4cc(N5CCCC5)cc5c4N(CC5)C3=O)c(C)n2n1`, the results for the IC50 (against Phosphodiesterase 4 [1]; against Phosphodiesterase 3; in test [6]) were 0.2 µM, 22.2 µM and above 100 µM, respectively.
On to `O=C(N[C@@H]1N=C(c2ccccc2)c2cccc3c2N(CC3)C1=O)c1cc2ccccc2cn1`, for which the IC50 at Phosphodiesterase 4 [1] is 5.5 µM; on Phosphodiesterase 3, above 100 µM; in [6] it was above 100 µM.
As to `Cc1cc2c3c(c1)C(c1ccccc1)=N[C@@H](NC(=O)c1c(Cl)cncc1Cl)C(=O)N3CC2`, the 50% inhibitory concentration (IC50) at Phosphodiesterase 4 [1] is 1 µM; at Phosphodiesterase 3, 19.5 µM; in [6] it was 38 µM. This molecule returned an ED50 in the test with Rattus norvegicus of 63.7 mg/kg.
On to `COc1ccccc1C(=O)N[C@@H]1N=C(c2ccccc2)c2cc(C)cc3c2N(CC3)C1=O`, for which the IC50 turned out to be 1.3 µM against Phosphodiesterase 4 [1], 28.8 µM against Phosphodiesterase 3 and 50.6 µM in [6].
Turning to `Nc1cc2c3c(c1)C(c1ccccc1)=N[C@@H](NC(=O)c1cccnc1)C(=O)N3CC2`, the IC50 against Phosphodiesterase 4 [1] is 0.27 µM; on Phosphodiesterase 3, above 100 µM; in test [6] it was above 100 µM. Also, the pIC50 in test [2] was 5.91; in test [5], 6.47. Moreover, the R+V at Phosphodiesterase 4 [7] is 0 90 min. Further, the figures for the median effective dose (ED50) (in the test on Rattus norvegicus; in test [4]) were 3.2 mg/kg and 2.8 mg/kg, respectively.
Regarding `O=C(N[C@@H]1N=C(c2ccccc2)c2cccc3c2N(CC3)C1=O)c1c(Cl)cncc1Cl`, the figures for the IC50 (against Phosphodiesterase 4 [1]; at Phosphodiesterase 3; in [6]) were 4.7 µM, above 100 µM and above 100 µM, respectively.
Turning to `Nc1cc2c3c(c1)C(c1ccccc1)=N[C@@H](NC(=O)c1cc(Cl)c(N)c(Cl)c1)C(=O)N3CC2`, the IC50 on Phosphodiesterase 4 [1] is 0.04 µM; against Phosphodiesterase 3, 51.6 µM; in [6], above 100 µM. In addition, the negative-log IC50 (pIC50) is 6.36 in test [2] and 7.96 in test [5]. The inhibition in vivo at 10 mg/kg in the test with Rattus norvegicus is -61.8%.
In the case of `CN(C)c1cc2c3c(c1)C(c1ccccc1)=N[C@@H](NC(=O)c1cc(Cl)c(N)c(Cl)c1)C(=O)N3CC2`, the IC50 against Phosphodiesterase 4 [1] came to 0.2 µM; at Phosphodiesterase 3 it was 3.2 µM; in test [6] it was 5.3 µM.
As to `Nc1cc2c3c(c1)C(c1ccccc1)=N[C@@H](NC(=O)c1cc4ccccc4cn1)C(=O)N3CC2`, the IC50 against Phosphodiesterase 4 [1] is 0.1 µM; on Phosphodiesterase 3, 48.5 µM; in [6], above 100 µM. Moreover, the pIC50 in [2] is 5.47; in test [5], 7.32. In addition, the inhibition in vivo at 10 mg/kg in the test on Rattus norvegicus is -62.9%; in test [4], -16%.
For `Cc1cc2c3c(c1)C(c1ccccc1)=N[C@@H](NC(=O)c1ccncc1)C(=O)N3CC2`, the IC50 against Phosphodiesterase 3 was determined as 35.8 µM; in [6], 73.4 µM. For the same molecule, the pIC50 in test [2] is 4.21; in test [5] it was 6.00. For the same molecule, in the test with Rattus norvegicus, the ED50 came out at 5.06 mg/kg. Besides, the R+V at Phosphodiesterase 4 [3] is 0 90 min. The inhibition in vivo at 10 mg/kg in test [4] was -25%.
Regarding `CC(=O)Nc1cc2c3c(c1)C(c1ccccc1)=N[C@@H](NC(=O)c1cc(Cl)c(N)c(Cl)c1)C(=O)N3CC2`, the figures for the IC50 (at Phosphodiesterase 4 [1]; on Phosphodiesterase 3; in test [6]) were 0.09 µM, 4.5 µM and 3.5 µM, respectively.
For `O=C(N[C@@H]1N=C(c2ccccc2)c2cccc3c2N(CC3)C1=O)c1ccncc1`, in that order: 20.5 µM, above 100 µM and above 100 µM.
Molecule `O=C(N[C@@H]1N=C(c2ccccc2)c2cc([N+](=O)[O-])cc3c2N(CC3)C1=O)c1cccnc1` came in with an IC50 on Phosphodiesterase 4 [1] of 10.8 µM.
On to `Nc1cnccc1C(=O)N[C@@H]1N=C(c2ccccc2)c2cccc3c2N(CC3)C1=O`, for which the IC50 on Phosphodiesterase 4 [1] was 16.2 µM; on Phosphodiesterase 3 it was 90 µM; in test [6], above 100 µM.
Take `Cc1cc2nnc(C(=O)N[C@@H]3N=C(c4ccccc4)c4cc(N)cc5c4N(CC5)C3=O)c(C)n2n1`: the IC50 against Phosphodiesterase 4 [1] was determined as 0.2 µM; on Phosphodiesterase 3, 48.6 µM; in test [6], 72 µM. In addition, the pIC50 was 6.12 in test [2] and 6.59 in test [5]. The molecule further displayed an ED50 in the test with Rattus norvegicus of 1.8 mg/kg.
For the molecule `Nc1cc2c3c(c1)C(c1ccccc1)=N[C@@H](NC(=O)c1ccncc1N)C(=O)N3CC2`, the IC50 at Phosphodiesterase 4 [1] is 0.7 µM; against Phosphodiesterase 3 it was above 100 µM; in test [6], above 100 µM. The pIC50 was 6.40 in test [2] and 7.10 in test [5]. The results for the inhibition in vivo at 10 mg/kg (in the test on Rattus norvegicus; in [4]) were -82% and -89%, respectively. For the same molecule, the R+V on Phosphodiesterase 4 [3] was 3.5 90 min.
`CC(C)(C)OC(=O)Nc1cnccc1C(=O)N[C@@H]1N=C(c2ccccc2)c2cccc3c2N(CC3)C1=O`: the results for the IC50 (at Phosphodiesterase 4 [1]; against Phosphodiesterase 3; in test [6]) were 6.2 µM, 54.7 µM and 53.3 µM, respectively.
For the molecule `Cc1cc2c3c(c1)C(c1ccccc1)=N[C@@H](NC(=O)c1cc(Cl)c(N)c(Cl)c1)C(=O)N3CC2`, the IC50 is 0.3 µM against Phosphodiesterase 4 [1], 10.3 µM against Phosphodiesterase 3 and above 100 µM in test [6]. In the test with Rattus norvegicus, the inhibition in vivo at 10 mg/kg is -21%.
As for `COc1ccc(C2CNC(=O)C2)cc1OC1CCCC1` (configuration not stated) [ROLIPRAM], at Phosphodiesterase 3, the IC50 is above 100 µM. Further, the figures for the pIC50 in test [2] and in test [5] were 6.03 and 7.08, respectively. Also, in the test with Rattus norvegicus, the ED50 is 4.66 mg/kg. The inhibition in vivo at 10 mg/kg in [4] was found to be 94%.
`COc1ccc([C@]2(C#N)CC[C@@H](C(=O)O)CC2)cc1OC1CCCC1` [CILOMILAST] had a pIC50 in test [2] of 5.14. For the same molecule, the R+V on Phosphodiesterase 4 [3] was 59.5 90 min. Further, the ED50 in test [4] turned out to be 3 mg/kg.
Take `CC(C)(C)OC(=O)Nc1cnccc1C(=O)N[C@@H]1N=C(c2ccccc2)c2cc(N)cc3c2N(CC3)C1=O`: the IC50 against Phosphodiesterase 3 amounted to 58.2 µM; in test [6], 67.7 µM. For the same molecule, the ED50 with Rattus norvegicus was 5.03 mg/kg. Besides, the R+V on Phosphodiesterase 4 [3] was 0 90 min. Besides, the inhibition in vivo at 10 mg/kg in test [4] is -87%.
Regarding `COc1cc2c3c(c1)C(c1ccccc1)=N[C@@H](NC(=O)c1ccncc1)C(=O)N3CC2`, the IC50 is 4.4 µM against Phosphodiesterase 4 [1], 40.8 µM at Phosphodiesterase 3 and 16.1 µM in test [6].
Consider `Cc1cc2c3c(c1)C(c1ccccc1)=N[C@@H](NC(=O)c1nnc4cc(C)nn4c1C)C(=O)N3CC2`, for which the IC50 against Phosphodiesterase 4 [1] is 0.7 µM; at Phosphodiesterase 3, above 100 µM; in test [6] it was above 100 µM. The negative-log IC50 (pIC50) in [2] is below 4.52; in test [5], 5.27. The molecule also registered an ED50 with Rattus norvegicus of 33.9 mg/kg.
For the molecule `CC(=O)Nc1cc2c3c(c1)C(c1ccccc1)=N[C@@H](NC(=O)c1ccncc1)C(=O)N3CC2`, the IC50 against Phosphodiesterase 4 [1] was found to be 0.7 µM; at Phosphodiesterase 3, 70 µM; in [6], 30.1 µM.
For `COc1cc2c3c(c1)C(c1ccccc1)=N[C@@H](NC(=O)c1cnc4ccccc4c1)C(=O)N3CC2`, in that order: 1.7 µM, 19.4 µM and 16.1 µM.
As for `Nc1cc2c3c(c1)C(c1ccccc1)=N[C@@H](NC(=O)c1c(Cl)cncc1Cl)C(=O)N3CC2`, the IC50 against Phosphodiesterase 4 [1] is 0.2 µM; at Phosphodiesterase 3, 80 µM; in test [6], above 100 µM. For the same molecule, the pIC50 in test [2] is 6.67; in test [5] it was 7.42.
Turning to `Nc1c(Cl)cc(C(=O)N[C@@H]2N=C(c3ccccc3)c3cc(N4CCCC4)cc4c3N(CC4)C2=O)cc1Cl`, the IC50 on Phosphodiesterase 4 [1] is 0.08 µM; against Phosphodiesterase 3 it was 10.6 µM; in test [6], 39.2 µM.
For `O=C(N[C@@H]1N=C(c2ccccc2)c2cc(N3CCCC3)cc3c2N(CC3)C1=O)c1ccncc1`, in that order: 1.4 µM, 18 µM and 34 µM.
The like results for `Nc1cc2c3c(c1)C(c1ccccc1)=N[C@@H](NC(=O)c1cnc4ccccc4c1)C(=O)N3CC2` were, in that order, 0.2 µM, 53.9 µM and 90.7 µM.
For `O=C(N[C@@H]1N=C(c2ccccc2)c2cc([N+](=O)[O-])cc3c2N(CC3)C1=O)c1cc2ccccc2cn1`, at Phosphodiesterase 4 [1], the IC50 was above 100 µM.
Take `O=C(N[C@@H]1N=C(c2ccccc2)c2cccc3c2N(CC3)C1=O)c1cccnc1`: the IC50 against Phosphodiesterase 4 [1] was 10.5 µM; on Phosphodiesterase 3, above 100 µM; in test [6], above 100 µM.
